Key:
DnaK (H. pylori HSP70) = molecular target: T1, DnaK (H. pylori HSP70) (Helicobacter pylori, UniProt P55994); assay: SPR (BIAcore […]), DnaK amine-coupled to CM5 chip; type: binding
T1 construct: full length cloned from genomic DNA of ATCC43504 in pCold I (vector His tag, cleavage not mentioned), E. coli BL21, Ni-NTA
T1 sequence (P55994 2-620): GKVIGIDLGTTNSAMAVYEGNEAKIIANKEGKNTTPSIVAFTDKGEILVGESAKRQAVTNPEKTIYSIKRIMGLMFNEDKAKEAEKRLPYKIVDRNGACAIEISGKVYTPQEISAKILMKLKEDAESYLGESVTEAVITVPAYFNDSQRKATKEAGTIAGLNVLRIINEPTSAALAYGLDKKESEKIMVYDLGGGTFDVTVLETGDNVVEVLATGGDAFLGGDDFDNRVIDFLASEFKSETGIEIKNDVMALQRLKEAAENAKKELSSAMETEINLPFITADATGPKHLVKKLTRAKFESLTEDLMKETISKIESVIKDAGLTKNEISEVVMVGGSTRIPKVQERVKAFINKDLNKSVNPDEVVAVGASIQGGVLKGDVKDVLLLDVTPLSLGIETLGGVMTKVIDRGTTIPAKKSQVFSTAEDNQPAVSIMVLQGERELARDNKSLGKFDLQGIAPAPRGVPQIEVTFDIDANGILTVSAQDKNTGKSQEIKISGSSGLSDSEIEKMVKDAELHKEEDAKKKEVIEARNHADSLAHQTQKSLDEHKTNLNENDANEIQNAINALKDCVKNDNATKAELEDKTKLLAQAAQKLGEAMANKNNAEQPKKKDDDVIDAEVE

HSP70 (human HSP70) [1] = molecular target: T2, HSP70 (human HSP70) (Homo sapiens, UniProt P0DMV8); assay: SPR (BIAcore […]), HSP70 amine-coupled to CM5 chip; type: binding
T2 construct: gene HSPA1A; full-length cDNA (from R. Morimoto) in pCold I (vector His tag, cleavage not mentioned); forward primer encodes N-terminus MAKAAAV

HSP70 (human HSP70) [2] = molecular target: T2, HSP70 (human HSP70); assay: citrate synthase thermal aggregation (light scattering, […] nm); type: biochemical; conditions: 50 mM HEPES pH 7.4, 50 C; 50 μM HSP70, 0.25 μM citrate synthase, 5 mM GGA

T2 sequence (P0DMV8 whole entry): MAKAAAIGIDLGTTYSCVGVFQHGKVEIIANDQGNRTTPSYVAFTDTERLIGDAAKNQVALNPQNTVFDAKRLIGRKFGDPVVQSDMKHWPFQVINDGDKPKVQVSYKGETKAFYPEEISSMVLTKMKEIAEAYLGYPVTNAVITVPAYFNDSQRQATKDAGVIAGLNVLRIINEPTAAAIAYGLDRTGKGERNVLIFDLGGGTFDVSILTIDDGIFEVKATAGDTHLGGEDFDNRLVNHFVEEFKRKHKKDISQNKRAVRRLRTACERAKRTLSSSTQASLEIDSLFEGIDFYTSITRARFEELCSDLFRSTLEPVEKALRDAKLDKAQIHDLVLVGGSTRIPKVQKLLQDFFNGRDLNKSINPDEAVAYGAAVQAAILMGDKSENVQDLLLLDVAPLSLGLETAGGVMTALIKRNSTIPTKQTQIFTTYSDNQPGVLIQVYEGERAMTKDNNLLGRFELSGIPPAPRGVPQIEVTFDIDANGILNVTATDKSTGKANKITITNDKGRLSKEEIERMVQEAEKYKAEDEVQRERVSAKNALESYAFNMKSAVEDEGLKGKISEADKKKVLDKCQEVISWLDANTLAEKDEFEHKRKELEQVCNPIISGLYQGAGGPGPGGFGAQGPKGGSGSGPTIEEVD

CC(=O)CC/C=C(\C)CC/C=C(\C)CC/C=C(\C)CCC=C(C)C [GGA, 6,10,14,18-tetramethyl-5,9,13,17-nonadecatetraen-2-one]
Kd (DnaK (H. pylori HSP70)): 75.5 nM | Kd (HSP70 (human HSP70) [1]): 2000 nM | % reduction of chaperone activity at 5 mM (HSP70 (human HSP70) [2]): 15%
